From patent US8097656B2, “Nitrogenated trans-stilbene analogs, method for the obtention and medical applications thereof” (Dominion Pharmakine S.L, priority 2005, dated 2012)

Assays:
MB16 cells = test: MB16 hepatic metastasis test after intrasplenic injection; format: in vivo, C57BL/6J mice; settings: 1 mg/Kg/day nasogastrically; for Reduction of the mean density of hepatic metastases: daily, vs control animals, P<0.01; for No. portal metases/No. sinusoidal metastasis (ratio in brackets) / Percentage of focal points w/cavitation (% of total no. of metastatic focal points) / No. portal metases / No. sinusoidal metastasis / Volume of hepatic metastasis (mm^3) / Hepatic focal point density (No. focal points/100 mm^3) / Metastatic cell proliferation index (% cells positive to Ki67 antigen) / Length of angiogenic vessels (μm): day 12; for No. portal metases/No. sinusoidal metastasis (ratio in brackets): control 1; for Percentage of focal points w/cavitation (% of total no. of metastatic focal points): control 13.5 ± 5.0; for No. portal metases / No. sinusoidal metastasis: control 30; for Volume of hepatic metastasis (mm^3): control 60.0 ± 7.5; for Hepatic focal point density (No. focal points/100 mm^3): control 60.0 ± 11; for Metastatic cell proliferation index (% cells positive to Ki67 antigen): control 71.0 ± 5.0; for Length of angiogenic vessels (μm): control 175.0 ± 10
Experimental: MB16 Hepatic Metastasis Test using C57 BL/6J mice (males 6-8 weeks of age) supplied by IFFA Credo (L'Arbreole, France). The care, maintenance and experimental conditions were carried out in accordance with that which is set forth under EEC Council Directive 86/609 (OJ L 358. 1, Dec. 12, 1987) and the NIH guide for the care and use of laboratory animals (NIH publication 85-23, 1985). In the experiments with the resveratrol and azaresveratrol compounds (Table 1), the animals (10 per group) received 1 mg/Kg/day of the compounds nasogastrically every day up to the time of sacrifice. In the experiments with the JE2:2 compound (FIG. 12), one group of mice (n=10) was given an intraperitoneal injection of 0.5 mg/kg of the JE2:2 compound dissolved in 0.1 ml of PBS. The control group (n=10), was given an intraperitoneal injection of PBS. One hour later, animals were anesthetized and were intrasplenically injected with MB16 cells (3×10^5 cells/mouse). The same treatments, at the same doses, were repeated on days 2, 3, 4, 8, 9, 10 and 11 following tumor injection.
Twelve (12) days later, the livers were removed and processed for the histological study. Firstly, they were fixed in a solution of zinc (0.5 g calcium acetate, 5 g zinc acetate, 5 g zinc chloride and 1000 ml tris buffer, pH 7.4) for 24 hours. Once fixed, they were dehydrated in alcohols of increasing concentrations, and paraffin block were included. Afterward, a minimum of nine (9) cuts 10 μm in thickness were made per liver, leaving a space of 300 μm between every 3 cuts and a 1 mm space between successive groups of 3 cuts. Once the sections had been obtained, they were processed and stained with hematoxylin-eosine. On the one hand, the number, mean diameter, area and position coordinates of each metastasis were quantified by means of an integrated image analysis system (Olympus Microimage 4.0 capture kit) connected to an Olympus BX51TF microscope. With obtained data, metastatic parameters (that is to say, the number of focal points per 100 mm^3 of hepatic tissue) and metastatic volume (that is to say, the volume of liver occupied by metastatic tissue) were calculated as described by Vidal-Vanaclocha et al. [cf. Vidal-Vanaclocha, F., Amézaga, C., Asumendi, A., Kaplanski, G. & Dinarello, C. A. “Interleukin-1 receptor blockade reduces the number and size of murine B 16 melanoma hepatic metastases”, Cancer Research, 1994, vol. 54, pp. 2667-2672]. On the other hand, more cuts were made in the same blocks, and a double marking with CD31 and desmine was performed to calculate the number and length of the angiogenic vessels within the metastases and also to study metastases according to their angiogenic pattern in portal-type expansive metastases (the angiogenic vessels surround the metastases) or sinusoidal type invasive metastases (containing an internal network of angiogenic capillaries). Another parameter that was quantified is the cavitated metastasis percentage. Lastly, immunohistochemical detection of Ki67 antigen was performed to assess the number of tumor cells which proliferated per unit of tumor surface.
To this end, the MB16 cells were intrasplenically injected in C57BL/6J mice (3×10^5 viable cells per animal resuspended in endotoxin-free sterile saline solution), 12 days after which the capacity thereof of development metastasis was determined.
One group of mice (n=7) were administered an intraperitoneal injection of JE2:2 (2.5 mg/kg) 1′ hour prior to tumor cell injection, and the same dose was repeated on days 2, 3, 4, 8, 9, 10 and 11 in following thereto. The group of control mice (n=7) was administered PBS.

MA375 cells = test: MA375 cell adhesion to immobilized VCAM-1 substrates; format: cell-based, human; settings: 2.5 μM; for Adhesion of MA375 cells with H2O2 to immobilized VCAM-1 (% cells adhered): 10 μM H2O2, control 21.0 ± 4, H2O2 alone 41.3 ± 4.2; for Adhesion of MA375 cells treated with IL-18 to immobilized VCAM-1 (% cells adhered): control 21.0 ± 4, IL-18 alone 31.5 ± 3.2
Experimental: MB16 and MA375 cell adhesion to immobilized VCAM-1 substrates. The MB16 and MA375 cell adhesion tests were conducted on immobilized VCAM-1 substrates (2 μg/ml of recombinant human VCAM-1, R&D Systems, Minneapolis, Minn.) on 96-well plates. To avoid non-specific attachment to the plastic, 0.5% BSA dissolved in PBS was added to the wells for 2 hours at ambient temperature prior to conducting the adhesion test. The melanoma cells were preincubated with 2.5 μM of the compounds to be tested (azaresveratrol, see Table 2; JE1:2, JE2:1 and JE2:2 see FIG. 2; JEM2:2-01 and JEM2:1-02 see FIG. 7; YEF02, YEF03, YEF07, YEF05B, YEF07B and YEF05H. see FIG. 9) for 30 minutes, to which 10 μM of hydrogen peroxide or 10 ng/ml of IL-18 were added, respectively for a further 24 hours. Afterward, the cells were washed and marked with the BCECF-AM fluorescent probe (carboxyfluorescein, 2′,7′-bis-(2-carboxy-ethyl)-5-(6)carboxyfluorescein aminoxymethyl ester). Thirty minutes later, a washing process was performed to remove the excess fluorochromium, the number of viable cells being calculated by means of the trypan blue exclusion test and (5×10^4 cells/well) being added to the 96-well plate. The co-culture plates were incubator-incubated at 37° C. for 1 hours. The percentage of cellular adhesion was calculated by measuring the fluorescence emitted by the adhered cells (obtained after washing the plate) with regard to the fluorescence emitted by the total number of cells added. The results in the figures are given in values related to the adhesion percentages of the untreated melanoma cells.

Row | Structure (SMILES) | Reduction of the mean density of hepatic metastases (MB16 cells) [%] | No. portal metases/No. sinusoidal metastasis (ratio in brackets) (MB16 cells) | Percentage of focal points w/cavitation (% of total no. of metastatic focal points) (MB16 cells) [%] | No. portal metases (MB16 cells) | No. sinusoidal metastasis (MB16 cells) | Volume of hepatic metastasis (mm^3) (MB16 cells) | Hepatic focal point density (No. focal points/100 mm^3) (MB16 cells) | Metastatic cell proliferation index (% cells positive to Ki67 antigen) (MB16 cells) [%] | Length of angiogenic vessels (μm) (MB16 cells) | Adhesion of MA375 cells with H2O2 to immobilized VCAM-1 (% cells adhered) (MA375 cells) | Adhesion of MA375 cells treated with IL-18 to immobilized VCAM-1 (% cells adhered) (MA375 cells)
1 | Oc1ccc(/N=C/c2cc(O)cc(O)c2)cc1 [azaresveratrol, 5-((E)-(4-Hydroxyphenylimino)methyl)benzene-1,3-diol] | 46 | 4.09 | 40.0 ± 10 | 22.5 | 5.5 | 24.0 ± 9.0 | 28.0 ± 10 | 35.0 ± 10 | 88.0 ± 21 | 4.5 ± 0.3 | 5.0 ± 0.3
2 | Oc1ccc(C=Cc2cc(O)cc(O)c2)cc1 [resveratrol, reference compound] | 50 | 3 | 41.5 ± 11 | 22.5 | 7.5 | 18.7 ± 7.5 | 30.0 ± 11 | 40.0 ± 5.0 | 88.0 ± 23 | 6.5 ± 0.5 | 5.5 ± 0.4
